Target: T1, sEH enzyme (Homo sapiens, UniProt P34913)
T1 sequence (P34913 1-555): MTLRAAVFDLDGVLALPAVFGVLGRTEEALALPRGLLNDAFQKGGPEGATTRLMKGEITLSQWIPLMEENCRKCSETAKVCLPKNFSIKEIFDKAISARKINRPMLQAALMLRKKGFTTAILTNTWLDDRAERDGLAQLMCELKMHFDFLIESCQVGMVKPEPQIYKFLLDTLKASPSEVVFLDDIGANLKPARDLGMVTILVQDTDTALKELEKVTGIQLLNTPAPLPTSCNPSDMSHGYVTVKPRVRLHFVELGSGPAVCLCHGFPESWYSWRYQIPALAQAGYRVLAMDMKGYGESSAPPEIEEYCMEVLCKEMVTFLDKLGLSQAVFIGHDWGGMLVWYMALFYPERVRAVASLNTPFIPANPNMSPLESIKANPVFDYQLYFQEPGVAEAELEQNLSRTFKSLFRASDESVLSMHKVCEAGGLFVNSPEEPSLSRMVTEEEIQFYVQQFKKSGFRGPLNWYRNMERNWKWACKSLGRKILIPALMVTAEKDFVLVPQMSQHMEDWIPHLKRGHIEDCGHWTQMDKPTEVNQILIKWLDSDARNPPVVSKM
Test: sEH enzyme kinetics
Format: biochemical
Settings: for Ki: Ki (μM), Dixon plots; for Inhibition type: Lineweaver–Burk plots

O=C(CCCCCCCCc1ccc(O)cc1)c1c(O)cccc1O [Compound 19, malabaricone B]
Ki: 20.9 µM | Inhibition type: Competitive

O=C(CCCCCCCCc1ccc(O)c(O)c1)c1c(O)cccc1O [Compound 20, malabaricone C]
Ki: 11.1 µM | Inhibition type: Competitive
